Experimental findings from patent US8822171B1, “Methods for screening for inhibitors of tau phosphorylation by casein kinase I” (priority 2003, dated 2014) are described below.

For this assay, the system named is Rat and human cortical neurons. Description: Amyloid beta treatment of neurons; phosphotyrosine immunoprecipitation and Western blot with tau antibodies. The assay is classed as cell-based. The settings on record: neurons treated with Aβ peptide for 1-10 min. How it is done:
Rat and human cortical neurons were treated with Aβ peptide (25-35) or reverse Aβ peptide (35-25) for 1-10 min. Proteins containing phosphotyrosine were immunoprecipitated and separated by SDS-PAGE. Western blots of heat-stable extracts of neuronal cultures and immunoprecipitates were probed with antibodies to tau.

For “Aβ peptide (25-35) (GSNKGAIIGLM; Amyloid-beta protein 42; UniProt P05067 696-706, looked up, fragment) [amyloid β-peptide fragment 25-35 used to treat rat and human cortical neurons]”, the “increase in phosphotyrosine in tau relative to basal level” value is given as “approximately four times the basal level” and the “tyrosine phosphorylation of neuronal proteins including tau” value is recorded as “increased tyrosine phosphorylation”.
